Data set [1] concerns the target T1, NaV1.7 (Homo sapiens, UniProt Q15858).
T1 construct: expressed in transfected cells; tetracycline-inducible, kept under hygromycin and blasticidin
Nature of the data set: Whole cell patch clamp, external block of NaV1.7 current (compound in external solution). The format is cell-based. The conditions noted are these: compound applied externally, read-out: Nav1.7 Extracellular Inhibition; for inhibition at 30 µM: % inhibition at test concentration 30 μM. As to the method:
Representative compounds of the invention were synthesized according to the described methods and tested for the ability to inhibit voltage-gated sodium channels.
NaV1.7 was expressed upon induction with tetracycline. Cells were cultured in DMEM containing 10% dialyzed Fetal Bovine Serum (VWR, Radnor, Pa.), 1% Glutamax (VWR, Radnor, Pa.), 1% Penicillin-Streptomycin (VWR, Radnor, Pa.), 100 mg/L Hygromycin (Thermo Fisher Scientific, Waltham, Mass. and 5 mg/L Blasticidin (Alfa Aesar, Haverhill, Mass.). Cells were grown and maintained at 37° C. in a humidified environment containing 10% CO2 in air. Cells were detached from the culture flask for passage and harvested using 0.05% Trypsin-EDTA (Thermo Fisher Scientific, Waltham, Mass.). To induce NaV1.7, cells were induced with tetracycline (0.1-1 μg/mL, IBI Scientific, Peosta, Iowa) the day before recording and plated onto 24-well plates. Cells were washed with DPBS (VWR, Radnor, Pa.), trypsinized and then triturated five times in 10 mL of growth media to break apart cell aggregates. For one 24-well plate, 2 mL of cell suspension was mixed with 23 mL of fresh growth media and 0.1-1 μg/mL tetracycline added. 1 ml of mixed media with cells was then added to each well of a 24-well plate, with a 12 mm coverslip already placed in the bottom of the well. Cells were then incubated in 37° C. and 10% CO2 overnight.
The intracellular solution contained the following (in mM) CsCl 135, NaCl 10, EGTA 10, HEPES 10, MgCl2 2, adjusted to pH 7.2 with CsOH. The external solution was a normal Ringer solution containing (in mM) NaCl 155, HEPES 10, glucose 10, KCl 3.5, CaCl2 1.5, MgCl2 1 adjusted to pH 7.4 with NaOH. CsCl is from Alfa Aesar, Haverhill, Mass. All other chemicals are from Sigma-Aldrich, St. Louis, Mo. In order to test the degree of internal block by test compounds the compounds were dissolved in internal solution at the indicated test concentration. […] In order to test the degree of external block by test compounds the compounds were dissolved in external solution at the indicated test concentration.
18-24 hours after cells were induced with tetracycline, coverslips were placed into a chamber filled with Normal Ringer solution at room temperature and the chamber placed on a microscope. Pipettes were pulled from borosilicate glass on a P97 puller (Sutter Instrument, Novato, Calif.) and polished with a MF-830 Microforge (Narishige International USA, Inc, Amityville, N.Y.) to have a resistance of 1.5-2.5 MΩ when filled with CsCl internal solution at room temperature. Healthy cells (those that are round and translucent with no visible blemishes) were chosen for seal formation. A seal was formed between the pipette and the cell, and a brief pulse of suction was used to “break in” and establish the whole-cell configuration. The membrane potential was held at −100 mV before the voltage protocol began. Only cells with series resistance between 1.5-5 MΩ were retained for analysis. The voltage protocol was as follows: Cells were held at −100 mV for 12 ms followed by a hyperpolarizing step to −105 mV for 12 ms to monitor the leak. Cells were then stepped back to −100 mV for 40 ms. Cells were then depolarized to −20 mV for 10 ms and then returned to −100 mV for 26 ms.
Once the recording was started, the voltage protocol was run at 30 second intervals for 5 minutes to get a stable baseline. This is followed by 5 Hz stimulation of the same voltage protocol run until the end of experiment. […] The test compound is added for 5 minutes before washing out with normal Ringer's solution. Currents were recorded using PatchMaster software with Heka EPC10 (HEKA Electronics, Lambrecht, Germany). Only cells with inward current amplitudes at −20 mV between 400 pA and 4 nA were accepted. In addition, cells having leak currents greater than 10% of their current amplitudes were discarded. […]

Data set [2] addresses T1, NaV1.7. Nature of the data set: Whole cell patch clamp, internal block of NaV1.7 current (compound in internal solution). Particulars: compound applied internally, manual patch clamp, read-out: Nav1.7 Intracellular Inhibition. The format is cell-based. The method, boiled down:
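Tetracycline-induced NaV1.7 cells, whole-cell patch clamp at room temperature with compound in CsCl internal solution (pH 7.2), Ringer bath (pH 7.4). Held at −100 mV, steps to −20 mV; after baseline, four 30-s 5 Hz trains. Peak inward current at end of last train divided by baseline gives fraction remaining.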

Data set [3] can be described thus: PAMPA membrane permeability assay. The format is in vitro ADME. The conditions noted are these: PAMPA permeability coefficient, GIT lipid, buffer pH 7.4, 4 hours incubation. The method, boiled down: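 Passive permeability across GIT lipid-coated artificial membrane; compounds at 50 μM in pH 7.4 buffer in donor wells, incubated 4 h. Donor, acceptor and reference concentrations read by UV spectroscopy, permeability coefficient calculated from spectral AUCs.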

T1 sequence (Q15858 whole entry): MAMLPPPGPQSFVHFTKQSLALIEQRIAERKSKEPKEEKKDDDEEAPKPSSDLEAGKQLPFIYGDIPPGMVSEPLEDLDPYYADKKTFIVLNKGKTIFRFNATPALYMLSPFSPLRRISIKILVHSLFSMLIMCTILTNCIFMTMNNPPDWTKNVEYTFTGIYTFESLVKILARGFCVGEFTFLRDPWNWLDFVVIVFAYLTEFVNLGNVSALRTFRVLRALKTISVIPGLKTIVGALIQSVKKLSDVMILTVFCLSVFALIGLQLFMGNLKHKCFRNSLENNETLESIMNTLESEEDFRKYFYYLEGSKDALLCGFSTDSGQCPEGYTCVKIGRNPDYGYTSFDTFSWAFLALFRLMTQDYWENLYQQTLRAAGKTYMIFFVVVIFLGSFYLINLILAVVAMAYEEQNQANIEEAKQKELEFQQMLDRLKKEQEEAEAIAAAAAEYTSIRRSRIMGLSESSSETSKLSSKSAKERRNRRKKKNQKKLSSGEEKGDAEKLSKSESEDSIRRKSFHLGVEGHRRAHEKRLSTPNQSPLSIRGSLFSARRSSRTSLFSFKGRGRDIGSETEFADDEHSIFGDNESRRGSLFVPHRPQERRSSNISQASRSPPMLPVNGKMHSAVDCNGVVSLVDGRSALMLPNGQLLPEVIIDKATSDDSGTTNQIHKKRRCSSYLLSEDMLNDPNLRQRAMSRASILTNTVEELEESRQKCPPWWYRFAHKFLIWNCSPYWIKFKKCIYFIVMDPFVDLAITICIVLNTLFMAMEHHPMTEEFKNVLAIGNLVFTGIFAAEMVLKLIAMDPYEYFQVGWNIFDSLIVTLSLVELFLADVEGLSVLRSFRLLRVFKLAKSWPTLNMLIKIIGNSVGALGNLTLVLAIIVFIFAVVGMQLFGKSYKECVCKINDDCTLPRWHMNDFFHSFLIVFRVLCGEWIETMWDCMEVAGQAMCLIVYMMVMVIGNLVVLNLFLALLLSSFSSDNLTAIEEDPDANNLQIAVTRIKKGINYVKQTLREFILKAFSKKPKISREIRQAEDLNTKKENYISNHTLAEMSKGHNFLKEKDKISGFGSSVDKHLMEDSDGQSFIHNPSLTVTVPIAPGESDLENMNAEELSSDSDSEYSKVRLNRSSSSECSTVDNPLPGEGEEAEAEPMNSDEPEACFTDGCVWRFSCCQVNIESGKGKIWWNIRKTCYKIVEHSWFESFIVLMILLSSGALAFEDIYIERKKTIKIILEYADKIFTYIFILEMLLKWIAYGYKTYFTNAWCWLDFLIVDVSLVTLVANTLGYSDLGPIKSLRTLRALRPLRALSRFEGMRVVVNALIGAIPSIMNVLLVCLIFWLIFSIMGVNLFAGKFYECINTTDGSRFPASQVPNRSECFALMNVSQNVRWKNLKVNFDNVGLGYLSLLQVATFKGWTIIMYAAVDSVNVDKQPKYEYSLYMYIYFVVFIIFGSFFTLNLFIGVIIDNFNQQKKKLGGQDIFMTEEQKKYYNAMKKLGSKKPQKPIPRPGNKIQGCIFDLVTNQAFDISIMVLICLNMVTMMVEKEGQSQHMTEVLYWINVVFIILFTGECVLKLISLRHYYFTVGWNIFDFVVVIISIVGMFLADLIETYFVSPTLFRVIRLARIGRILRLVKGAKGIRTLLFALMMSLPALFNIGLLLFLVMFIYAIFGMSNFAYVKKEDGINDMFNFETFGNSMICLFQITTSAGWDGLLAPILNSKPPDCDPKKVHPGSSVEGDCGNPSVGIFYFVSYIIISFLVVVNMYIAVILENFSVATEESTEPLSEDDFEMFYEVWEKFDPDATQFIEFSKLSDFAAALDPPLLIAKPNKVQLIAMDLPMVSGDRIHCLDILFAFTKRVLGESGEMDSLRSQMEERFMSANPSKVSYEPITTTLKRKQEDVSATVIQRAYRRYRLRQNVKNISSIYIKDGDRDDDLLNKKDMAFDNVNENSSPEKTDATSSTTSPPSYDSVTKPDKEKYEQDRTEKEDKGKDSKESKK

In the case of `Cc1cccc(C)c1NC(=O)C[n+]1c(C)cccc1C.[Br-]` [Compound 6A, 1-(2-((2,6-dimethylphenyl)amino)-2-oxoethyl)-2,6-dimethylpyridin-1-ium bromide], the inhibition at 1000 µM in data set [1] (% inhibition at test concentration 1,000 μM) is 40 to 70%. The inhibition at 32 µM in data set [2] was over 95%. In addition, the “PAMPA (10^−6 cm/s)” value in data set [3] is recorded as “++ (0.1-2.0 10^−6 cm/s)”.

As for `Cc1cccc(C)c1NC(=O)C[n+]1cccc(-c2ccccc2)c1.[Br-]` [Compound 12A, 1-(2-((2,6-dimethylphenyl)amino)-2-oxoethyl)-3-phenylpyridin-1-ium bromide], in data set [1], the inhibition at 30 µM is under 40%. In addition, in data set [2], the inhibition at 10 µM was over 95% and the inhibition at 32 µM is over 95%. For the same molecule, in data set [3], the “PAMPA (10^−6 cm/s)” value is “+ (<0.1 10^−6 cm/s)”.

Regarding `CCc1cccc[n+]1CC(=O)Nc1c(C)cccc1C.[Br-]` [Compound 13A], the inhibition at 30 µM in data set [1] is under 40%. Also, the inhibition at 32 µM in data set [2] fell in the range of 70 to 95%. Besides, in data set [3], the “PAMPA (10^−6 cm/s)” value is recorded as “+ (<0.1 10^−6 cm/s)”.

Take `Cc1cccc(C)c1NC(=O)C[n+]1ccccc1-c1ccccc1.[Br-]` [Compound 16A]: the inhibition at 100 µM in data set [1] (% inhibition at test concentration 100 μM) is under 40%. Further, in data set [2], the inhibition at 10 µM was over 95% and the inhibition at 32 µM is over 95%. For the same molecule, the “PAMPA (10^−6 cm/s)” value in data set [3] is recorded as “++ (0.1-2.0 10^−6 cm/s)”.

As for `CCc1ccc[n+](CC(=O)Nc2c(C)cccc2C)c1.[Br-]` [Compound 17A], the inhibition at 30 µM in data set [1] is under 40%. Also, in data set [2], the inhibition at 10 µM lay in the range of 70 to 95% and the inhibition at 32 µM was in the range of 70 to 95%. Moreover, the “PAMPA (10^−6 cm/s)” value in data set [3] was “+ (<0.1 10^−6 cm/s)”.

Turning to `CCOC(=O)c1ccc[n+](CC(=O)Nc2c(C)cccc2C)c1.[Br-]` [Compound 25A], the inhibition at 30 µM in data set [1] was in the range of 40 to 70%. Also, the inhibition at 10 µM in data set [2] lay in the range of 70 to 95%. For the same molecule, the “PAMPA (10^−6 cm/s)” value in data set [3] was “+ (<0.1 10^−6 cm/s)”.
